Consider 22 molecules from patent US10682352B2, “Compound having mutant IDH inhibitory activity, preparation method and use thereof” (SHANGHAI HAIHE PHARMACEUTICAL CO., LTD., priority 2016, dated 2020).

Where two headings read alike, the source gives them in different places.

Assay [1] has as its system fibrosarcoma cell line HT1080. Description: 2HG inhibition assay on fibrosarcoma cell line HT1080 (LC-MS/MS). To be noted: HT-1080 cells, 48 h incubation, read-out: HT1080 2HG Inhibitory IC50. The class given is cell-based, Human. As for the experimental part:
In this experiment, the inhibitory activity of the compounds of the present invention against the 2HG concentration level of fibrosarcoma cell line HT1080 was measured by the following method.
Different concentrations of compounds were added and incubated for 48 h. HT-1080 cells were trypsinized and collected, and centrifuged at 500 g for 5 min. The supernatant was discarded, and the cells were resuspended in 1 ml of PBS and the number of cells per sample was counting by a counter (Beckman coulter Z2, Beckman) and adjusted to be the same. After centrifuged at 500 g for 5 min, the supernatant was discarded, and the cell pellet was stored in a refrigerator at −80° C. for 2HG detection.
Sample Treatment: an ice acetonitrile solution containing 200 μL of verapamil (internal standard) was added to sample tubes respectively, vortexed for 1 min, and placed in a refrigerator at 4° C. for 20 min to lyse the cells. 100 μL of sample was taken, another 100 μL of lysate was taken in a 96-well plate and dried with a nitrogen blower, and 100 μL of water was added and vortexed to be uniform.
1. Derivatization: 100 μL of o-benzylhydroxylamine hydrochloride derivatization reagent was added and shaken on a shaker for 1 h to complete the derivatization reaction.
2. Solution extraction: 300 μL of ethyl acetate was added separately, shaken for 20 min, centrifuged at 1900 rpm for 5 min, and placed in a refrigerator at −70° C. for 40 min. All the ethyl acetate was taken up to another sample plate, and dried with a nitrogen blower. 150 μL MEOH/H2O (v/v, 1/1) was added for reconstitution.
3. Bioanalysis: All of the above samples were analyzed by LC-MS/MS (Waters ACQUITY H-Class System, Waters/AB6500, Sciex) after centrifuged at 4000 rpm for 10 min.
The inhibition rate of the sample was obtained by the following formula: […]
IC50 values were calculated using GraphPad Prism software.

The next assay addresses IDH1 R132H (Homo sapiens (Human), UniProt O75874, R132H). Description: Effect on the enzyme activity of IDH1 at the molecular level (NADPH consumption, diaphorase/resazurin). The class given is biochemical. The following applies: α-KG 1 mM, NADPH 4 μM, 60 min room temperature. As for the experimental part: The enzyme used in the experiment was purchased from cayman Co.
The substrates α-KG, NADPH and Diaphorase were purchased from Sigma; Resazurin was purchased from J&K; and the remaining reagents were purchased from Sinopharm Chemical Reagent Co., Ltd.
Compound preparation: Compound 12000 g was centrifuged for 5 min, DMSO was added to prepare 10 mM, which was vortexed, then ultrasonic treatment for 10 minutes, and stored at −40° C. The stock solution was diluted firstly with DMSO to a 10 μM solution when tested and then gradient-diluted for 3 times to a different test concentration.
Test method: The enzyme activity of IDH1 to convert α-KG to 2HG was measured by the consumption of NADPH. After the enzymatic reaction was completed, a catalytic excess of diaphorase and reazurin were added, and the resulting fluorescent signal could reflect the amount of remaining NADPH. […] IC50 values were calculated using GraphPad Prism software.

Sequence of IDH1 R132H (O75874 whole entry R132H): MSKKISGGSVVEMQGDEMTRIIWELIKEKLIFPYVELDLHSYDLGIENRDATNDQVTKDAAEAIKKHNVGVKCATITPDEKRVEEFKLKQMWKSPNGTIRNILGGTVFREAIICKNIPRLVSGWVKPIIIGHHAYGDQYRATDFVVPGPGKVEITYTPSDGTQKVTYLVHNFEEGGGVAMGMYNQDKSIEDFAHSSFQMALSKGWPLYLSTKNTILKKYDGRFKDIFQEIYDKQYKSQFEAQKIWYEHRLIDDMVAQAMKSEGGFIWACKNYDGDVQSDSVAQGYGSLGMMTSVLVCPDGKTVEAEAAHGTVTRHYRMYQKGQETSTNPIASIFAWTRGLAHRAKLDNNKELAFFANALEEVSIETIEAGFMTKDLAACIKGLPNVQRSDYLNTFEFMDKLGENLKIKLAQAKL

Turning to `CC(C)[C@@H]1N(c2ccnc(N[C@@H](C)c3cn(-c4ccc(C(F)(F)F)cc4)cn3)n2)C(=O)NC1(C)C` [Compound 101], the IC50 in assay [1] (Homo sapiens, HT-1080, 48 h) turned out to be 20 nM.
Still for that read-out and setting: the same measure for `CC(C)[C@H]1CN(C)C(=O)N1c1ccnc(NC2(c3cn(-c4cccc(C5CC5)c4)cn3)CC2)n1` [Compound 34]: 16 nM.
For the molecule `CC(C)[C@H]1C(C)N(C)C(=O)N1c1ccnc(N[C@@H](C)c2cn(-c3ccc(Cl)cc3)cn2)n1` (single isomer, unassigned) [Compound 90], the IC50 against IDH1 R132H was below 100 nM; in assay [1] (Homo sapiens, HT-1080, 48 h), 24 nM.
The corresponding values for `CC(C)[C@H]1C(C)NC(=O)N1c1ccnc(N[C@@H](C)c2cn(-c3ccc(C(F)(F)F)cc3)cn2)n1` (single isomer, unassigned) [Compound 92] are below 100 nM and 33 nM.
As for `N#Cc1ccnc(N2C(=O)CC[C@H]2C(=O)N(c2cncc(F)c2)[C@H](C(=O)NC2CC(F)(F)C2)c2ccccc2Cl)c1` [AG120, reference compound], the IC50 in assay [1] (Homo sapiens) worked out at 30 nM.
In the case of `[2H]C1([2H])NC(=O)N(c2ccnc(N[C@@H](C)c3cn(-c4ccc(C(F)(F)F)cc4)cn3)n2)[C@H]1C(C)C` [Compound 83, (S)-1-(2-(((S)-1-(1-(4-(trifluoromethyl)phenyl)-1H-imidazol-4-yl)ethyl)amino)pyrimidin-4-yl)-4,4-dideutero-5-isopropylimidazolidine-2-one], in assay [1] (Homo sapiens, HT-1080, 48 h), the half-maximal inhibitory concentration (IC50) was determined as 10 nM.
For the molecule `CC(C)[C@H]1C(C)NC(=O)N1c1ccnc(N[C@@H](C)c2cn(-c3ccc(C(F)(F)F)cc3)cn2)n1` (single isomer, unassigned) [Compound 93], the IC50 was below 100 nM against IDH1 R132H and 34.5 nM in assay [1].
The corresponding values for `CC(C)[C@H]1C(C)NC(=O)N1c1ccnc(N[C@@H](C)c2cn(-c3ccc(Cl)cc3)cn2)n1` (single isomer, unassigned) [Compound 87] are below 100 nM and 29 nM.
Consider `CC(C)c1cccc(-n2cnc(C3(Nc4nccc(N5C(=O)N(C)C[C@@H]5C(C)C)n4)CC3)c2)c1` [Compound 30, (S)-3-(2-((1-(1-(3-isopropylphenyl)-1H-imidazol-4-yl)cyclopropyl)amino)pyrimidin-4-yl)-4-isopropyl-1-methylimidazolidne-2-one], for which the IC50 in assay [1] (Homo sapiens, HT-1080, 48 h) was 15 nM.
As to `CC(C)[C@H]1C(C)NC(=O)N1c1ccnc(N[C@@H](C)c2cn(-c3ccc(Cl)cc3)cn2)n1` (single isomer, unassigned) [Compound 86], the results for the IC50 (against IDH1 R132H; in assay [1]) were below 100 nM and 66 nM, respectively.
Regarding `[2H]C([2H])([2H])N1C(=O)N(c2ccnc(N[C@@H](C)c3cn(-c4ccc(Cl)cc4)cn3)n2)[C@@H](C(C)C)C1([2H])[2H]` [Compound 89, (S)-3-(2-(((S)-1-(1-(4-chlorophenyl)-1H-imidazol-4-yl)ethyl)amino)pyrimidin-4-yl)-5,5-dideutero-4-isopropyl-1-deuteromethylimidazolidine-2-one], in assay [1] (Homo sapiens, HT-1080, 48 h), the IC50 is 39 nM.
Regarding `CC(C)[C@H]1C(C)N(C)C(=O)N1c1ccnc(N[C@@H](C)c2cn(-c3ccc(Cl)cc3)cn2)n1` (single isomer, unassigned) [Compound 91], the IC50 at IDH1 R132H is below 100 nM; in assay [1], 12 nM.
Regarding `CC(C)[C@H]1C(C)N(C)C(=O)N1c1ccnc(N[C@@H](C)c2cn(-c3ccc(C(F)(F)F)cc3)cn2)n1` (single isomer, unassigned) [Compound 94], the IC50 was below 100 nM against IDH1 R132H and below 10 nM in assay [1] (Homo sapiens, HT-1080, 48 h).
On to `CC(C)[C@H]1CN(C)C(=O)N1c1ccnc(NC2(c3cn(-c4cc(Cl)cc(Cl)c4)cn3)CC2)n1` [Compound 26, (S)-3-(2-((1-(1-(3,5-dichlorophenyl)-1H-imidazol-4-yl)cyclopropyl)amino)pyrimidin-4-yl)-4-isopropyl-1-methylimidazolidine-2-one], for which the IC50 in assay [1] (Homo sapiens, HT-1080, 48 h) was determined as 27 nM.
`CC(C)[C@H]1CN(C)C(=O)N1c1ccnc(N[C@@H](C)c2cn(-c3cc(Cl)cc(Cl)c3)cn2)n1` [Compound 60, (S)-3-(2-(((S)-1-(1-(3,5-dichlorophenyl)-1hydro-imidazol-4-yl)ethyl)amino)pyrimidin-4-yl)-4-isopropyl-1-methylimidazolidine-2-one] showed an IC50 against IDH1 R132H of 100 to 1000 nM.
Turning to `COc1cc(Cl)cc(-n2cnc(C3(Nc4nccc(N5C(=O)N(C)C[C@@H]5C(C)C)n4)CC3)c2)c1` [Compound 38, (S)-3-(2-((1-(1-(3-chloro-5-methoxyphenyl)-1H-imidazol-4-yl)cyclopropyl)amino)pyrimidin-4-yl)-4-isopropyl-1-methylimidazolidine-2-one], in assay [1] (Homo sapiens, HT-1080, 48 h), the IC50 was found to be 14 nM.
On IDH1 R132H, `CC(C)[C@H]1CN(C)C(=O)N1c1ccnc(NC(C)(C)c2cn(-c3ccc(Cl)cc3)cn2)n1` [Compound 72, (S)-3-(2-((2-(1-(4-chlorophenyl)-1H-imidazol-4-yl)prop-2-yl)amino)pyrimidin-4-yl)-4-isopropyl-1-methylimidazolidine-2-one] had an IC50 of 100 to 1000 nM.
The same measure, in the same setting: the result for `Cc1cc(N2C(=O)N(C)C[C@@H]2C2CC2)nc(N[C@@H](C)c2cn(-c3ccc(Cl)cc3)cn2)n1` [Compound 79, (S)-3-(2-(((S)-1-(1-(4-chlorophenyl)-1H-imidazol-4-yl)ethyl)amino)-6-methylpyrimidin-4-yl) cyclopropyl-1-methylimidazolidine-2-one] reads 100 to 1000 nM.
The same measure, in the same setting: the same measure for `CC(C)[C@H]1CN(C)C(=O)N1c1ccnc(N[C@@H](C)c2cn(-c3cccc(C(F)(F)F)c3)cn2)n1` [Compound 59]: 100 to 1000 nM.
On IDH1 R132H, `CC(C)[C@H]1CN(C)C(=O)N1c1ccnc(NC2(c3ncn(-c4cccc(C5CC5)c4)n3)CC2)n1` [Compound 64] came in with an IC50 of 100 to 1000 nM.
As to `CC(C)[C@H]1CN(C)C(=O)N1c1ccnc(N[C@@H](C)c2cn(-c3ccc(Cl)cc3)cn2)n1` [Compound 17, (S)-3-(2-(((S)-1-(1-(4-chlorophenyl)-1H-imidazol-4-yl)ethyl)amino)pyrimidin-4-yl)-4-isopropyl-1-methylimidazolidine-2-one], the IC50 in assay [1] (Homo sapiens, HT-1080, 48 h) stood at 12.9 nM.
`CC(C)[C@H]1C(C)N(C)C(=O)N1c1ccnc(N[C@@H](C)c2cn(-c3ccc(C(F)(F)F)cc3)cn2)n1` (single isomer, unassigned) [Compound 95]: the values for the IC50 (on IDH1 R132H; in assay [1]) were below 100 nM and below 10 nM, respectively.
